pIC50: −log10 of the molar value.
Legend:
[1] = molecular target: PI3Kα (Homo sapiens (Human), UniProt P42336); experiment: Inhibition of PI3Kα (ADP-Glo kinase activity assay, ATP to ADP conversion); type: biochemical; conditions: 25 μM PIP2:PS, 60 μM ATP, 30 min reaction, luminescence
Description: Quantification of ATP to ADP conversion as a measure of PI3Kα activity. Active PI3Kα (Life Technologies), in the presence or absence of PI3Kα inhibitor, was reacted with PIP2:PS (Life Technologies), a substrate specifically optimized for use with Class I PI3 kinases, and ultrapure ATP (Promega). The conversion of ATP to ADP by PI3Kα was measured as luminescence signal via Promega ADP-Glo kinase activity assay. Assay was validated using published PI3Kα inhibitors LY294002, PI-103, BYL719, GDC0198 and also DMSO vehicle control.
Compounds were prepared at 100× final concentration as a 12-point, 1:3 serial-dilution in DMSO series, with DMSO control as 12th point. Compound was then diluted in (25 mM HEPES pH 7.5, 1 mM EGTA, 0.3% CHAPS) prior to addition to PI3Kα. Active PI3Kα diluted to 0.24 ng/μL (1.1 nM) in (50 mM HEPES pH 7.5, 6 mM MgCl2, 1 mM EGTA, 200 mM NaCl, 0.03% CHAPS, 8 mM DTT) was incubated with compound for 0 hr and 3 hr prior to the start of the reaction. 25 μM PIP2:PS and 60 μM ATP were diluted from stock in (25 mM HEPES pH 7.5, 1 mM EGTA, 0.3% CHAPS) and added to initiate the PI3Kα reaction. Reaction time was 30 minutes. ATP to ADP conversion was measured in Luminescence Counts on DTX880 Plate Reader (Beckman Coulter). Compound IC50s were reported using GraphPad Prism software. Analytical method was non-linear regression, 4-parameter curve fit with bottom fit to validated PI3Kα inhibitor reference controls and no top fit (floating top).

[2] = test system: (Ser-473) pAKT in B103 (Rat Neuroblastoma) cells; experiment: pAKT protocol: loss of (Ser-473) pAKT by AlphaScreen in insulin-stimulated B103 cells; type: cell-based; conditions: (Ser-473) pAKT/total AKT IC50, 2-hour pretreatment, 2.5 μg/mL insulin 20 minutes
Description: Inhibition of the PI3K-AKT-mTOR pathway was measured by quantifying the loss of (Ser-473) pAKT using AlphaScreen (Perkin Elmer). B103 (Rat Neuroblastoma) cells were seeded in serum containing medium (High Glucose DMEM (-Phenol Red)+10% FBS+2× Glutamax+1 mM Sodium Pyruvate+10 mM HEPES+1× Non-Essential Amino Acids+1× Pen/Strep) on a 96-well tissue culture treated plate and grown for 20 hours. Cells were then serum starved in serum free medium (High Glucose DMEM (-Phenol Red)+1× Glutamax+1 mM Sodium Pyruvate+1× Pen/Strep) for 6 hours prior to a 2-hour pretreatment with inhibitors of the pathway, including reference inhibitor LY294002. These inhibitors were prepared at a 200× final concentration as a 6-point, 1:3 serial dilution in DMSO series, with DMSO as the 7th point. The inhibitors were then diluted in experimental medium (High Glucose DMEM (-Phenol Red)+1× Glutamax+1 mM Sodium Pyruvate+1× Pen/Strep+25 mM HEPES+0.1% BSA) and combined with the cells at 1× final concentration in 0.5% DMSO. […] Cells were promptly lysed using Perkin Elmer proprietary lysis buffer and the (Ser-473) pAKT and total AKT contained in the lysate was measured by AlphaScreen. In AlphaScreen, donor beads were coated with streptavidin to capture one of the antibodies, which is biotinylated. Acceptor beads were coated with Protein A to immobilize the other antibody. In the presence of target protein, the two antibodies bring the donor and acceptor beads close together, generating signal. The amount of light emission is directly proportional to the amount of target protein present in the sample. For each inhibitor tested: the ratio of measured (Ser-473) pAKT/totalAKT was plotted in GraphPad Prism as a 7-point, non-linear regression, 4-parameter curve with bottom constrained to reference control bottom and unconstrained top anchored to DMSO.

Sequence of PI3Kα (P42336 whole entry): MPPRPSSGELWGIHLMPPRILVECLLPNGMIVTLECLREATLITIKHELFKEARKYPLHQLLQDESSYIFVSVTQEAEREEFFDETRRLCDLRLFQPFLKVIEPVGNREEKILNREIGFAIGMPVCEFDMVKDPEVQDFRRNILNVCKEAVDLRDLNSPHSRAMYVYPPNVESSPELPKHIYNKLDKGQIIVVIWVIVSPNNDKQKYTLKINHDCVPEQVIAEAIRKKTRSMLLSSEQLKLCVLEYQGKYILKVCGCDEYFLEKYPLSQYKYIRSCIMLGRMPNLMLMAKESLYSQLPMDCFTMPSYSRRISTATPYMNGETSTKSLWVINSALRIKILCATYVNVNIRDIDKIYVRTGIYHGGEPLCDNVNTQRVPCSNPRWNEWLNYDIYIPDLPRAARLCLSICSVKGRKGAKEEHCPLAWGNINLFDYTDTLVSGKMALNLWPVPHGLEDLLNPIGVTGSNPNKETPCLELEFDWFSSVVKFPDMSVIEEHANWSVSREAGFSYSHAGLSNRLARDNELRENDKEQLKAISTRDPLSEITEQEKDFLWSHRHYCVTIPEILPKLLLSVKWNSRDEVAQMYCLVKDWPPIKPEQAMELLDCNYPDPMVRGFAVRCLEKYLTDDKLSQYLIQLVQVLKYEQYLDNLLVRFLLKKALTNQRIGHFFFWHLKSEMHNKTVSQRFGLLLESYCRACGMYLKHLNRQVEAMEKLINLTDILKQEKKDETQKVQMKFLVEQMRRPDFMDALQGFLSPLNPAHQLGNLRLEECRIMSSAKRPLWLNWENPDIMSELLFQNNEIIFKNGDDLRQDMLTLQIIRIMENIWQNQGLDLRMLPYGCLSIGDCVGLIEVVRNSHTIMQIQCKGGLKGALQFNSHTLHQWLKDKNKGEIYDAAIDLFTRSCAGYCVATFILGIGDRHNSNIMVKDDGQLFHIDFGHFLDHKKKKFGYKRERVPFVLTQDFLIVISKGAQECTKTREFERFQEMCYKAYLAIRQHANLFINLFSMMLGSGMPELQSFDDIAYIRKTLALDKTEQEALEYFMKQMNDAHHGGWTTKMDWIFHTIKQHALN
Sequence of PI3Kα (P27986 whole entry partner): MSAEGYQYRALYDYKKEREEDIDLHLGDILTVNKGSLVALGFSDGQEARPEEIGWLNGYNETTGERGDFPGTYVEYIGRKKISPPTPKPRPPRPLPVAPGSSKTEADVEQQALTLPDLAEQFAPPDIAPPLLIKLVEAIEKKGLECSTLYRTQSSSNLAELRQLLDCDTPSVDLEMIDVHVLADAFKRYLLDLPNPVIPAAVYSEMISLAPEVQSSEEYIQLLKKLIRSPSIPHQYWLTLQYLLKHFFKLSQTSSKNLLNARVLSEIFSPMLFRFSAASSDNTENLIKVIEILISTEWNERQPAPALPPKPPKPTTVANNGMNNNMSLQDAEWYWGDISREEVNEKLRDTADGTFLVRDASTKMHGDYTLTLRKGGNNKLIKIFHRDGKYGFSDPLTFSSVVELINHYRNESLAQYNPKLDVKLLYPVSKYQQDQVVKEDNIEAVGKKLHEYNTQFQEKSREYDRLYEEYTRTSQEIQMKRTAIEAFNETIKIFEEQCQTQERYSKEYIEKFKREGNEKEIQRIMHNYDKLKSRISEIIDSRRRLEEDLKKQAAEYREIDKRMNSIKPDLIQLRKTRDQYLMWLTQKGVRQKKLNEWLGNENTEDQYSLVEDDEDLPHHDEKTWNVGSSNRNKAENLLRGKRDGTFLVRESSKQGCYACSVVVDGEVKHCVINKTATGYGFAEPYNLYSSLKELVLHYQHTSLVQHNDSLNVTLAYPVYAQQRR

Row | Compound | PI3Ka IC50 [1] [µM] | pIC50 [2]
1 | Nc1ncc(-c2cc(N3CCCc4ccccc43)cc(N3CCOCC3)n2)cn1 [Compound 140, 5-(4-(3,4-Dihydroquinolin-1(2H)-yl)-6-morpholinopyridin-2-yl)pyrimidin-2-amine] | 0.12 | 6.51
2 | Nc1ncc(-c2cc(N3CCOCC3)cc(S(=O)(=O)[C@@H]3CCOC3)c2)cc1C(F)(F)F [Compound 100, (R)-5-(3-morpholino-5-((tetrahydrofuran-3-yl)sulfonyl)phenyl)-3-(trifluoromethyl)pyridin-2-amine] | 1.6 | 4.32
3 | COCNC(=O)N1CC(S(=O)(=O)c2cc(-c3cnc(N)nc3)cc(N3CCOCC3)c2)C1 [Compound 94, 3-((3-(2-aminopyrimidin-5-yl)-5-morpholinophenyl)sulfonyl)-N-(methoxymethyl)azetidine-1-carboxamide] | 0.11 | 4.70
4 | Nc1cc(C(F)(F)F)c(-c2cc(N3CCOCC3)cc(S(=O)(=O)[C@@H]3CCOC3)c2)cn1 [Compound 71, (R)-5-(3-morpholino-5-((tetrahydrofuran-3-yl)sulfonyl)phenyl)-4-(trifluoromethyl)pyridin-2-amine] | 9.1 | 4.95
5 | Nc1ncc(-c2cc(Cc3ccccc3)cc(N3CCOCC3)n2)cn1 [Compound 124, 5-(4-benzyl-6-morpholinopyridin-2-yl)pyrimidin-2-amine] | 0.12 | 6.05
6 | Nc1ncc(-c2cc(N3CCOCC3)cc(S(=O)(=O)c3ccc4ccoc4c3)c2)cn1 [Compound 112, 5-(3-(benzofuran-6-ylsulfonyl)-5-morpholinophenyl)pyrimidin-2-amine] | 2.3 | 4.65
7 | Nc1ncc(-c2cc(N3CCOCC3)cc(S(=O)(=O)Cc3ccc4[nH]cnc4c3)c2)cn1 [Compound 63, 5-(3-(((1H-benzo[d]imidazol-5-yl)methyl)sulfonyl)-5-morpholinophenyl)pyrimidin-2-amine] | 0.47 | 5.43
8 | Nc1ncc(-c2cc(N3CCOCC3)nc(S(=O)(=O)c3ccccc3)c2)cn1 [Compound 118, 5-(2-morpholino-6-(phenylsulfonyl)pyridin-4-yl)pyrimidin-2-amine] | 0.88 | 4.86
9 | CN(C)C(=O)N1CC(S(=O)(=O)c2cc(-c3cnc(N)nc3)cc(N3CCOCC3)c2)C1 [Compound 95, 3-((3-(2-aminopyrimidin-5-yl)-5-morpholinophenyl)sulfonyl)-N,N-dimethylazetidine-1-carboxamide] | 0.12 | 5.28
10 | Nc1ncc(-c2cc(N3CCOCC3)cc(S(=O)(=O)CCc3ccc(F)cc3)c2)cn1 [Compound 82, 5-(3-((4-fluorophenethyl)sulfonyl)-5-morpholinophenyl)pyrimidin-2-amine] | 0.29 | 4.97
11 | Nc1ncc(-c2cc(N3CCOCC3)cc(S(=O)(=O)c3c[nH]c4ccccc34)c2)cn1 [Compound 114, 5-(3-((1H-indol-3-yl)sulfonyl)-5-morpholinophenyl)pyrimidin-2-amine] | 2.4 | 4.82
12 | Nc1ncc(-c2cc(N3CCOCC3)cc(S(=O)(=O)Cc3ccc(N4CCOCC4)cc3)c2)cn1 [Compound 58, 5-(3-morpholino-5-((4-morpholinobenzyl)sulfonyl)phenyl) pyrimidin-2-amine] | – | 4.38
13 | CNc1ccc(-c2cc(N3CCOCC3)cc(S(=O)(=O)[C@@H]3CCOC3)c2)cn1 [Compound 108, (R)-N-methyl-5-(3-morpholino-5-((tetrahydrofuran-3-yl)sulfonyl)phenyl)pyridin-2-amine] | 0.69 | 5.33
14 | Nc1ncc(-c2cc(N3CCOCC3)cc(S(=O)(=O)C3CN(C(=O)C4CC4)C3)c2)cn1 [Compound 77, (3-((3-(2-aminopyrimidin-5-yl)-5-morpholinophenyl)sulfonyl)azetidin-1-yl)(cyclopropyl)methanone] | 0.10 | 5.50
15 | Nc1ncc(-c2cc(N3CCOCC3)cc(S(=O)(=O)C3CCCCC3)c2)cn1 [Compound 49, 5-(3-(cyclohexylsulfonyl)-5-morpholinophenyl)pyrimidin-2-amine] | 0.49 | 4.51
16 | Nc1ncc(-c2cc(S(=O)(=O)c3ccccc3Cl)cc(N3CCOCC3)n2)cn1 [Compound 139, 5-(4-((2-chlorophenyl)sulfonyl)-6-morpholinopyridin-2-yl)pyrimidin-2-amine] | 0.017 | 7.80
17 | CC(C)C(=O)N1CC(S(=O)(=O)c2cc(-c3cnc(N)nc3)cc(N3CCOCC3)c2)C1 [Compound 76, 1-(3-((3-(2-aminopyrimidin-5-yl)-5-morpholinophenyl)sulfonyl)azetidin-1-yl)-2-methylpropan-1-one] | 0.30 | 5.25
18 | Nc1ncc(-c2cc(N3CCOCC3)cc(S(=O)(=O)C3CN(C(=O)Cc4ccc(F)cc4)C3)c2)cn1 [Compound 78, 1-(3-((3-(2-aminopyrimidin-5-yl)-5-morpholinophenyl)sulfonyl)azetidin-1-yl)-2-(4-fluorophenyl)ethan-1-one] | 0.18 | 5.34
19 | Nc1ncc(-c2cc(N3CCOCC3)cc(S(=O)(=O)/C=C/c3ccccc3O)c2)cn1 [Compound 113, (E)-2-(2-((3-(2-aminopyrimidin-5-yl)-5-morpholinophenyl)sulfonyl)vinyl)phenol] | 1.1 | 4.84
20 | Nc1ccc(-c2cc(N3CCOCC3)cc(S(=O)(=O)[C@@H]3CCOC3)c2)cn1 [Compound 101, (R)-5-(3-morpholino-5-((tetrahydrofuran-3-yl)sulfonyl)phenyl)pyridin-2-amine] | 0.88 | 5.07
21 | Nc1ncc(-c2cc(N3CCOCC3)cc(S(=O)(=O)c3ccccc3)n2)cn1 [Compound 117, 5-(4-morpholino-6-(phenylsulfonyl)pyridin-2-yl)pyrimidin-2-amine] | 3.3 | 4.76
22 | Nc1ccc(-c2cc(N3CCOCC3)cc(S(=O)(=O)Cc3ccc(F)cc3F)c2)nn1 [Compound 96, 6-(3-((2,4-difluorobenzyl)sulfonyl)-5-morpholinophenyl)pyridazin-3-amine] | 1.4 | 5.97
23 | CC(=O)N1CCC(S(=O)(=O)c2cc(-c3cnc(N)nc3)cc(N3CCOCC3)c2)CC1 [Compound 83, 1-(4-((3-(2-aminopyrimidin-5-yl)-5-morpholinophenyl)sulfonyl)piperidin-1-yl)ethan-1-one] | 0.34 | 5.07
24 | CC(C)(C)NC(=O)N1CC(S(=O)(=O)c2cc(-c3cnc(N)nc3)cc(N3CCOCC3)c2)C1 [Compound 92, 3-((3-(2-aminopyrimidin-5-yl)-5-morpholinophenyl)sulfonyl)-N-(tert-butyl)azetidine-1-carboxamide] | 0.15 | 5.54
25 | Nc1ncc(-c2cc(N3CCOCC3)cc(S(=O)(=O)Cc3ccncc3)c2)cn1 [Compound 97, 5-(3-morpholino-5-((pyridin-4-ylmethyl)sulfonyl)phenyl)pyrimidin-2-amine] | 0.51 | 4.91
26 | Nc1ncc(-c2cc(N3CCOCC3)cc(S(=O)(=O)c3ccc4c(c3)OCC4)c2)cn1 [Compound 116, 5-(3-((2,3-dihydrobenzofuran-6-yl)sulfonyl)-5-morpholinophenyl)pyrimidin-2-amine] | 2.3 | 4.64
